Activity calls are given as the source filed them.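 How the source made its calls: active means fitted curve rises past 0.47 at a concentration no higher than the top valid tested dose; inconclusive means flat curve at a moderate level, or poor fit; inactive means the rest, including signal moving the wrong way.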
Test system: compound-only thermal shift, SYPRO orange fluorescence, no protein
Experiment: dye fluorescence signal without protein – biophysical, SYPRO orange, qPCR instrument, dry powder samples, artefact control for FGF22 binder project, dose response (AID 743039)
Details: at 0.16 µM

Thermal shift signal, higher = interference, inactive:
Cc1cc(NC(=O)Nc2ccc3c(ccn3C)c2)sn1 0.052%
O=C(Nc1nccs1)C1CC(=O)N(c2ccc(F)cc2)C1 (stereo not given) -0.148%
COc1ccc(C)cc1NS(=O)(=O)c1ccc(NS(=O)(=O)c2ccc(NC(C)=O)cc2)cc1 -0.005%
CC(=O)Nc1ccc(NC(=O)Nc2ccccc2)cc1 0.246%
O=C(N/N=C/c1c[nH]c2ccccc12)c1cccc(Cl)c1 0.069%
CC(=O)Nc1cccc(NC(=O)c2ccc3[nH]c(C)c(C)c3c2)c1 -0.227%
O=C(N/N=C/c1c[nH]c2ccccc12)c1ccc(O)c(O)c1 0.065%
O=C(NCCc1c[nH]c2ccccc12)c1ccc(Cl)cc1 0.048%
O=C(Nc1ccc(Cl)cc1)N[C@@H]1CC[C@@H](CCNS(=O)(=O)c2ccccc2F)O[C@H]1CO -0.043%
COC(=O)C[C@H]1CC[C@@H]2[C@@H](COc3ccc(NC(=O)Nc4cccc(C#N)c4)cc3C(=O)N2C)O1 0.097%
Clc1ccc(Nc2ccc(NCc3ccccc3)nn2)cc1 -0.178%
Cc1ccc(OCCCC(=O)Nc2ccc(S(=O)(=O)N3CCOCC3)cc2)cc1 -0.12%
CC(=O)Nc1cccc(C(=O)N/N=C/c2c[nH]c3ccccc23)c1 0.019%
O=C(Nc1ccc(S(=O)(=O)N2CCCC2)cc1)c1ccccc1 -0.209%
Nc1cccc(-c2nc3ccc(C(=O)c4ccccc4)cc3[nH]2)c1 0.145%
CCN1C(=O)C(CC(=O)Nc2ccc(F)cc2)N(Cc2ccc3c(c2)OCO3)C1=S (stereo not given) -0.165%
O=S1(=O)N=C(N(Cc2cccs2)c2ccc(O)cc2)c2ccccc21 0.057%
CCc1cc(-c2n[nH]c(C)c2-c2ccc3c(c2)OCCO3)c(O)cc1O -0.093%
COc1ccc(Nc2nc3ccc(OC)cc3s2)cc1 0.188%
CSc1ccc(/C=N/NC(=O)c2ccc3nc[nH]c3c2)cc1 0.305%
O=C(C[C@H]1CC[C@@H]2[C@H](COC[C@H](O)CN2S(=O)(=O)c2cccc(Cl)c2)O1)Nc1ccccc1 -0.063%
Cc1ccc(S(=O)(=O)N2C[C@@H](O)COC[C@@H]3O[C@@H](CC(=O)NCc4ccc(Cl)c(Cl)c4)CC[C@H]32)cc1 0.045%
CCCNC(=O)COC(=O)c1ccccc1C(=O)N(C)C1CCCCC1 -0.157%
Cc1[nH]c2ccc(C(=O)OCC(=O)Nc3cccc(S(N)(=O)=O)c3)cc2c1C -0.322%
O=C(O)Cc1ccc(NC(=O)c2ccc(Cl)c(Cl)c2)cc1 0.188%
COc1ccc(-c2nc(-c3ccc(O)cc3O)cs2)cc1OC 0.011%
Cc1[nH]c2ccccc2c1C(=O)NS(=O)(=O)Nc1ccc(Cl)cc1 -0.148%
O=C(Nc1ccc(S(=O)(=O)N2CCOCC2)cc1)c1ccc(F)cc1 -0.05%
Nc1ccc(C(=O)N/N=C/c2c[nH]c3ccccc23)cc1 0.042%
CCc1cc(-c2[nH]ncc2-c2ccc3c(c2)OCCO3)c(O)cc1O -0.049%
CCN1C/C(=C/c2cccs2)c2nc3ccccc3c(C(=O)O)c2C1 0.048%
CC(C)c1c(C(=O)N/N=C/c2c[nH]c3ccccc23)nnn1-c1nonc1N -0.009%
O=C(Nc1cc(Cl)cc(Cl)c1)N[C@@H]1CC[C@@H](CCNS(=O)(=O)c2cccc(F)c2)O[C@@H]1CO 0.004%
COC(=O)C[C@H]1CC[C@@H]2[C@@H](COc3ccc(NC(=O)Nc4ccc(C#N)cc4)cc3C(=O)N2C)O1 0.237%
COc1cc(/C=N/NC(=O)c2cc3ccccc3[nH]2)ccc1O -0.114%
CCOc1cccc(C(=O)Nc2ccc3[nH]ncc3c2)c1 -0.066%
Cc1ccn(-c2ccc(NC(=O)c3cccs3)cc2)n1 -0.057%
O=C(N/N=C/c1c[nH]c2ccccc12)c1cccc(O)c1 0.355%
O=S(=O)(Nc1nnc(C(F)(F)F)s1)c1ccc(Cl)cc1 -0.081%
O=C(Nc1cc(Cl)cc(Cl)c1)N[C@@H]1CC[C@@H](CCNS(=O)(=O)c2cccc(F)c2)O[C@H]1CO 0.061%
O=C(N/N=C/c1c[nH]c2ccccc12)c1cccs1 -0.182%
COC(=O)C1=C(CS(=O)(=O)c2cc(OC)ccc2OC)NC(=O)NC1c1ccc(O)c(OC)c1 (stereo not given) -0.182%
O=C(Nc1ccc(S(=O)(=O)N2CCCC2)cc1)c1cccs1 -0.157%
CCNC(=O)C[C@@H]1CC[C@H]2[C@H](COc3ccc(NC(=O)Nc4ccc(Cl)cc4)cc3C(=O)N2C)O1 0.052%
Cc1ccc(S(=O)(=O)N2C[C@H](O)COC[C@H]3O[C@H](CC(=O)NCc4ccc(Cl)c(Cl)c4)CC[C@@H]32)cc1 0.168%
O=C(N/N=C/c1ccc(C(F)(F)F)cc1)c1ccc(O)cc1 -0.028%
O=C(N/N=C/c1cccc(Oc2ccccc2)c1)c1cccc(O)c1 -0.026%
CN(Cc1c(C(=O)N/N=C/c2ccc(O)cc2)nnn1-c1nonc1N)c1ccccc1 -0.045%
Cc1cc(C(=O)N/N=C/c2c[nH]c3ccccc23)cs1 0.145%
CC(=O)c1ccc(NC(=O)Nc2cccnc2)cc1 0.235%

Source: PubChem BioAssay AID743039 (Broad Institute, 2013)
